Data from ChEMBL document CHEMBL1201862, “PubChem BioAssay data set” (2004).
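Where inhibition never reached the appropriate level, the endpoint shown equals the highest concentration tested. Otherwise, values were interpolated linearly from a five-concentration, 48-hour dose response in 96-well plates. Abbreviation: GI50, concentration required for 50% inhibition of growth.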 Active and inactive are the calls of the source. Rule as the data show it: active = GI50 up to about 1.1 µM and inactive = higher.

Columns and labels:
Assay in all cases: NCI-60 cell line screen, 48 h
[1] = test system: IGROV-1
[2] = test system: NCI-H460
[3] = test system: NCI-H23
[4] = test system: HOP-92
[5] = test system: CAKI-1
[6] = test system: TK-10
[7] = test system: SW-620
[8] = test system: SK-MEL-5
[9] = test system: OVCAR-8
[10] = test system: COLO 205
[11] = test system: UACC-62
[12] = test system: SF-295
[13] = test system: SK-MEL-28
[14] = test system: HL-60
[15] = test system: 786-0
[16] = test system: OVCAR-4
[17] = test system: SNB-75

SMILES | GI50 [1] | GI50 [2] | GI50 [3] | GI50 [4] | GI50 [5] | GI50 [6] | GI50 [7] | GI50 [8] | GI50 [9] | GI50 [10] | GI50 [11] | GI50 [12] | GI50 [13] | GI50 [14] | GI50 [15] | GI50 [16] | GI50 [17]
Cn1nc(-c2ccccc2)c(C(=O)/C=C/c2ccc(Cl)cc2)c(N2CCCCC2)c1=O | 2.15 µM (inactive) | 2.52 µM (inactive) | 2.19 µM (inactive) | 1.91 µM (inactive) | 0.826 µM (active) | 3.72 µM (inactive) | 3.48 µM (inactive) | 1.95 µM (inactive) | 3.8 µM (inactive) | 2.23 µM (inactive) | 2.2 µM (inactive) | 0.719 µM (active) | 3.78 µM (inactive) | 1.82 µM (inactive) | 1.69 µM (inactive) |  | 
CC(=O)NC1C(OCc2ccccc2)OC(COC(=O)CCCCCCCCCCNC(=O)CCNc2ccc([N+](=O)[O-])c3[nH]c4ccc(O)cc4c(=O)c23)C(O)C1OC(C)C(=O)N[C@H](C(=O)N[C@H](CCC(=O)O)C(N)=O)C(C)C (some centres undefined) | > 100 µM (inactive) | > 100 µM (inactive) | > 100 µM (inactive) | 28.7 µM (inactive) | > 100 µM (inactive) | > 100 µM (inactive) |  | > 100 µM (inactive) | > 100 µM (inactive) | 32.4 µM (inactive) | 85.3 µM (inactive) | > 100 µM (inactive) | > 100 µM (inactive) | 63.4 µM (inactive) | 76 µM (inactive) | 35.4 µM (inactive) | 17.1 µM (inactive)
C=CCCCCC1CCC2CCC(CCCCC=C)N12 (centres undefined) |  | 12.4 µM (inactive) |  | 10.3 µM (inactive) | 29.1 µM (inactive) | 16.6 µM (inactive) | 15.1 µM (inactive) | 13.9 µM (inactive) | 17.7 µM (inactive) | 16.2 µM (inactive) | 15.7 µM (inactive) | 13.4 µM (inactive) | 17.7 µM (inactive) | 14.5 µM (inactive) | 13.7 µM (inactive) | 13 µM (inactive) | 28.1 µM (inactive)
Cc1c(C(=O)/C=C/c2ccccc2Cl)[n+]([O-])c2ccccc2[n+]1[O-] | 15 µM (inactive) | 10.3 µM (inactive) | 14.5 µM (inactive) | 15.3 µM (inactive) | 3.24 µM (inactive) |  | 10.3 µM (inactive) | 18 µM (inactive) | 13.3 µM (inactive) | 15.5 µM (inactive) |  | 14.7 µM (inactive) | 16.6 µM (inactive) | 12.3 µM (inactive) | 12.6 µM (inactive) | 12.1 µM (inactive) | 16.4 µM (inactive)
c1ccc(OCCSCCCCCCCCCCSCCOc2ccccc2)cc1 | > 100 µM (inactive) | 37.8 µM (inactive) | > 100 µM (inactive) |  |  | 16.9 µM (inactive) | 54.2 µM (inactive) | 28.9 µM (inactive) | 61.2 µM (inactive) | > 100 µM (inactive) | > 100 µM (inactive) | 30.7 µM (inactive) | > 100 µM (inactive) | > 100 µM (inactive) | 50.4 µM (inactive) |  | > 100 µM (inactive)
O=C(Nc1ccccc1)O/N=C1/CCCC/C1=C\c1ccccc1 | 3.55 µM (inactive) | 15.1 µM (inactive) | 26 µM (inactive) | 22.9 µM (inactive) | 15.7 µM (inactive) | 17.9 µM (inactive) | 16.3 µM (inactive) | 13 µM (inactive) | 18.1 µM (inactive) | 14.5 µM (inactive) | 15.7 µM (inactive) | 16.1 µM (inactive) | 17.6 µM (inactive) |  | 16.7 µM (inactive) | 14.8 µM (inactive) | 13.9 µM (inactive)
CC12CCC(C)(c3cc(O)c(O)cc31)c1cc(O)c(O)cc12 | 20.3 µM (inactive) | 18 µM (inactive) | 27 µM (inactive) | 10.7 µM (inactive) | 11.2 µM (inactive) | 19.8 µM (inactive) | 15.7 µM (inactive) | 17.7 µM (inactive) | 19.7 µM (inactive) | 16.5 µM (inactive) | 17.3 µM (inactive) | 22 µM (inactive) | 16.4 µM (inactive) | 3.38 µM (inactive) | 14.7 µM (inactive) | 14.6 µM (inactive) | 11.6 µM (inactive)
C=C1C(=O)OC2C1CC[C@H](C)C1(O)C(O)CC(=O)[C@@]21C (some centres undefined) | 28.8 µM (inactive) | 36.5 µM (inactive) | 18.7 µM (inactive) | 27.7 µM (inactive) | 27.7 µM (inactive) | > 10 µM (inactive) | 20.6 µM (inactive) | 16.7 µM (inactive) | 17.4 µM (inactive) | 16.3 µM (inactive) | 12.7 µM (inactive) | 24.8 µM (inactive) | 13.6 µM (inactive) | 17 µM (inactive) | 24.2 µM (inactive) |  | 24.7 µM (inactive)
COc1cc2c(c(OC)c1OC)-c1ccc(SC)c(=O)cc1[C@@H](NC(=O)c1ccc(F)cc1)CC2 | 0.0594 µM (active) | 0.0344 µM (active) | 0.0417 µM (active) | 0.0281 µM (active) |  | 0.0515 µM (active) | 0.0306 µM (active) |  | 0.053 µM (active) | 0.0206 µM (active) | 0.0454 µM (active) | 0.0327 µM (active) | 15.2 µM (inactive) | < 0.01 µM (active) | 0.0488 µM (active) | 6.59 µM (inactive) | 0.07 µM (active)
